The test system of test [1] is SK-BR-3 cells. Kind of test: Measurement of cell growth inhibition (crystal violet staining). Type of test: cell-based. The conditions noted are these: Homo sapiens, 72 hours culture with test substance. On the procedure:
Cell growth was measured by a crystal violet staining method. […] The cells were cultured in a 5% CO2 incubator at 37° C. for 24 hours, and then test substances were added to the plate, followed by culturing for further 72 hours. […] The plate was left to stand at room temperature for 20 minutes for staining the cells. The plate was washed with water and dried, and 100 μL of a mixed solution of 0.05 M NaH2PO4 and ethanol (mixture in equal amounts) was added to each well. The absorbance at 540 nm was measured with a microplate reader (MTP-450, Corona Electric Co., Ltd.) as an index of the number of cells in each well. The inhibition rate (%) of cell growth by a compound of the present invention was determined by the following equation using the absorbance of a drug-untreated group (control) as a control. […] Inhibition rate (%)=(C−T)/C×100 T: absorbance in a well to which a test substance was added C: absorbance in a well to which no test substance was added

The target in test [2] is human HSP90 alpha protein (N-terminal, amino acids 2-236) (Homo sapiens (Human), UniProt P07900). Kind of test: Measurement of HSP90-binding activity (AlphaScreen competitive assay, biotin-labeled geldanamycin). To be noted: inhibition of biotin-labeled geldanamycin binding to purified HSP90; read-out: HSP-binding activity IC50. On the procedure:
First, a solution of purified HSP90 was prepared as follows. […] The pET-HSP90N was introduced into Escherichia coli cells (BL21 (DE3), Stratagene Inc.), and then the Escherichia coli cells were cultured in the presence of 0.5 mM isopropyl-beta-D-thiogalactopyranoside (Sigma-Aldrich Corp.) at 37° C. for 4 hours. The Escherichia coli cells were collected, suspended in a lysis buffer (50 mM Tris-HCl (pH 7.5), 200 mM NaCl), and sonicated. The sonicated cell solution was centrifuged (40,000×g, 20 minutes) to obtain supernatant as a crude extract. The crude extract was fractionated by Ni Sepharose High Performance (GE Healthcare Japan Corporation) chromatography and HiLoad 26/60 Superdex 75 pg (GE Healthcare Japan Corporation), and the fraction in which HSP90 protein was concentrated was prepared so as to be a 50 mM Tris-HCl (pH 7.5)/20% glycerol solution as a purified HSP90 solution. The purified HSP90 solution was divided and stored at −80° C. until use.
The HSP90-binding activity was measured by an AlphaScreen competitive assay system. […] After reaction at room temperature for 2 hours, biotin-labeled geldanamycin was added to each reaction solution in an amount of 40 nM, followed by reaction for further 1 hour. […] After reaction in a dark place at room temperature for 1 hour, the fluorescence intensity in each well was measured with a multilabel plate reader, EnVision (Perkin Elmer, Inc.). The inhibition rate (%) of biotin-labeled geldanamycin binding by a compound of the present invention was determined by the following equation using the fluorescence signal of a test substance-free group (control) as a control. […] Inhibition rate (%)=(C−T)/C×100 T: signal in a well to which a test substance was added C: signal in a well to which no test substance was added
For orientation: In Alpha technology, singlet oxygen from a donor bead excites a nearby acceptor bead.

Test [3] concerns Human gastric cancer cells (NCI-N87). The experiment in a line: Antitumor effect in subcutaneous transplantation model of human gastric cancer cell line NCI-N87. To be noted: for anti-tumor effect versus comparative compounds 6 and 7 at the same dose (RTV on day 15): 2 mg/kg/day oral for all compounds, Student-t test; for inhibition of tumor growth (relative tumor volume, FIG. 1): 2 mg/kg/day orally once per day for 14 days, nude mice, NCI-N87; for anti-tumor effect versus comparative compounds 6 and 7 at increased dose (RTV): Examples at 2 mg/kg/day oral, comparative compounds 6 and 7 at 10 mg/kg/day. Type of test: in vivo, nude mice. How it is done: Human gastric cancer cells (NCI-N87) (obtained from ATCC) were subcutaneously transplanted in nude mice, and at the time when the tumor volume of the nude mice in which the cancer cells had been survived became approximately 140 to 210 mm^3, stratified randomization was performed so that the average tumor volume of each group (6 animals were assigned to one group (grouping: on day 0)) became uniform. The compounds 1, 6, and 9 of the present invention and the comparative compounds 6 (the compound of Example 21 in WO 2010/106290) and 7 (the compound of Example 1 in WO 2010/106290) were orally administered daily once per day from day 1 for 14 days. Note that the comparative compounds were synthesized according to the method described in WO 2010/106290 (Table 22).
The doses of 2 mg/kg/day and 10 mg/kg/day were used for the comparative compounds 6 and 7, and the dose of 2 mg/kg/day was used for the compounds of Examples of 1, 6, and 9 of the present invention.
In order to compare the transition over time of the tumor growth in the administration of each test compound, the relative tumor volume (RTV) was calculated according to the following equation when the tumor volume on the grouping day was defined as 1 for the growth rate of tumor, and the transition of the average value of the RTV of each individual was shown in FIG. 1. RTV=(Tumor volume on tumor volume measurement day)/(Tumor volume when grouped) (Mathematical Formula 1)

The term IC50 denotes the concentration that inhibits the measured activity by half. As to `CC(C)c1nn(-c2ccc(C(N)=O)c(NC(C)(C)C)c2)c2cccc(-n3cnc(-c4cccnc4)c3)c12` [Example 1, 2-(Tert-butylamino)-4-(3-isopropyl-4-(4-(pyridin-3-yl)-1H-imidazol-1-yl)-1H-indazol-1-yl)benzamide], in test [1], the concentration for half-maximal inhibition (IC50) stood at 20 nM. Moreover, in test [2], the IC50 was 170 nM. In addition, in test [3], the “anti-tumor effect versus comparative compounds 6 and 7 at the same dose (RTV on day 15)” value is “significantly stronger anti-tumor effects than the comparative compounds 6 and 7”; the “inhibition of tumor growth (relative tumor volume, FIG. 1)” value is on record as “inhibited the tumor growth within one week from the start of the administration”; the “anti-tumor effect versus comparative compounds 6 and 7 at increased dose (RTV)” value is “significantly stronger anti-tumor effect than any of the comparative compounds 6 and 7”.
Regarding `CCc1cc(C(N)=O)ccc1-n1nc(C(C)C)c2c(-n3cnc(-c4cnn(C)c4)c3)cccc21` [Example 6, 3-Ethyl-4-(3-isopropyl-4-(4-(1-methyl-1H-pyrazol-4-yl)-1H-imidazol-1-yl)-1H-indazol-1-yl)benzamide], in test [1], the IC50 was determined as 30 nM. In addition, the half-inhibitory concentration (IC50) in test [2] is 100 nM. Moreover, in test [3], the “anti-tumor effect versus comparative compounds 6 and 7 at the same dose (RTV on day 15)” value is “significantly stronger anti-tumor effects than the comparative compounds 6 and 7”; the “inhibition of tumor growth (relative tumor volume, FIG. 1)” value was “inhibited the tumor growth within one week from the start of the administration”; the “anti-tumor effect versus comparative compounds 6 and 7 at increased dose (RTV)” value was “significantly stronger anti-tumor effect than any of the comparative compounds 6 and 7”.
The molecule `CC(C)c1nn(-c2ccc(C(N)=O)c(NC(C)(C)C)c2)c2cccc(-n3cnc(-c4cnn(C)c4)c3)c12` [Example 9, 2-(Tert-butylamino)-4-(3-isopropyl-4-(4-(1-methyl-1H-pyrazol-4-yl)-1H-imidazol-1-yl)-1H-indazol-1-yl)benzamide] gave an IC50 in test [1] of 10 nM. In addition, in test [2], the IC50 was determined as 260 nM. Besides, in test [3], the “anti-tumor effect versus comparative compounds 6 and 7 at the same dose (RTV on day 15)” value was “significantly stronger anti-tumor effects than the comparative compounds 6 and 7”; the “inhibition of tumor growth (relative tumor volume, FIG. 1)” value is listed as “inhibited the tumor growth within one week from the start of the administration”; the “anti-tumor effect versus comparative compounds 6 and 7 at increased dose (RTV)” value was “significantly stronger anti-tumor effect than any of the comparative compounds 6 and 7”.
For `Cc1cn(-c2ccc(C(N)=O)c(NC(C)(C)C)c2)c2cccc(-n3cnc(-c4cnn(C)c4)c3)c12` [Example 46, 2-(Tert-butylamino)-4-{3-methyl-4-(4-(1-methyl-1H-pyrazolo-4-yl)-1H-imidazolo-1-yl)-1H-indol-1-yl}benzamide], the half-inhibitory concentration (IC50) in test [1] worked out at 50 nM; in test [2] it was 190 nM.
The matching figures for `Cc1cn(-c2ccc(C(N)=O)c(NC(C)(C)C)c2)c2cccc(-n3cnc(-c4cccnc4)c3)c12` [Example 47, 2-(Tert-butylamino)-4-{3-methyl-4-(4-(pyridin-3-yl)-1H-imidazolo-1-yl)-1H-indol-1-yl}benzamide]: 120 nM and 430 nM.
`CCc1cn(-c2ccc(C(N)=O)c(NC(C)(C)C)c2)c2cccc(-n3cnc(-c4cnn(C)c4)c3)c12` [Example 48, 2-(Tert-butylamino)-4-{3-ethyl-4-(4-(1-methyl-1H-pyrazolo-4-yl)-1H-imidazolo-1-yl)-1H-indol-1-yl}benzamide]: the 50% inhibitory concentration (IC50) in test [1] was 10 nM; in test [2], 260 nM.
`CCCc1cn(-c2ccc(C(N)=O)cc2CC)c2cccc(-n3cnc(-c4cnn(C)c4)c3)c12` [Example 49, 3-Ethyl-4-{4-(4-(1-methyl-1H-pyrazolo-4-yl)-3-propyl-1H-imidazolo-1-yl)-1H-indol-1-yl}benzamide]: the results for the IC50 in test [1] and in test [2] were 30 nM and 120 nM, respectively.
The matching figures for `CCc1cc(C(N)=O)ccc1-n1cc(C(C)C)c2c(-n3cnc(-c4cnn(C)c4)c3)cccc21` [Example 51, 3-Ethyl-4-{3-isopropyl-4-(4-(1-methyl-1H-pyrazolo-4-yl)-1H-imidazolo-1-yl)-1H-indol-1-yl}benzamide]: 60 nM and 160 nM.
For the molecule `CC(C)c1cn(-c2ccc(C(N)=O)c(NC(C)(C)C)c2)c2cccc(-n3cnc(-c4cnn(C)c4)c3)c12` [Example 52, 2-(Tert-butylamino)-4-{3-isopropyl-4-(4-(1-methyl-1H-pyrazolo-4-yl)-1H-imidazolo-1-yl)-1H-indol-1-yl}benzamide], the results for the IC50 in test [1] and in test [2] were 20 nM and 420 nM, respectively.

The values are drawn from patent US9120780B2, “Indole or indazole derivative or salt thereof” (TAIHO PHARMACEUTICAL CO., LTD., priority 2011, dated 2015).
